Measured values reported in patent US11225605B2, “Polymerizable liquid crystal compound, method for producing polymerizable liquid crystal compound, polymerizable liquid crystal composition, optically anisotropic film, optical film, polarizing plate, and image display device” (FUJIFILM Corporation, priority 2017, dated 2022).

What was measured:
[1] = Durability of optically anisotropic film at high temperature and high humidity; assay type: physicochemical; details: for Durability 100° C. Relatibe 144 hours: film left 144 hours at relative humidity 95%, variation in Re (550); for Durability of optically anisotropic film: result in words
Protocol: With regard to a test condition for durability, a test in which the film was left to stand for 144 hours in an environment of a relative humidity of 95% at 100° C. was performed as described in Table 6 below.

[2] = Solubility in methyl ethyl ketone (MEK) and cyclopentanone (CPN); assay type: physicochemical; details: for Solubility Evaluation: MEK or CPN; for Solubility CPO: cyclopentanone; for Solubility CPO / Solubility MEK: shaken at 50° C., left at room temperature (23° C.) for 10 minutes; for Solubility MEK: methyl ethyl ketone
Protocol: Specifically, 50 mg of the compound was weighed into a 1.5-mL sample bottle, and a solvent was added thereto until the solid content became 40% by weight (75 mg).
The mixture was thoroughly shaken by the hand at 50° C. and left to stand at room temperature (23° C.) for 10 minutes. Then, this operation was stopped in a case where the mixture was clear upon visual observation, and it was determined that the solubility was 40% by weight. A solvent was added so that the solid content became 35% by weight in a case where there were undissolved residues (+18 mg). The mixture was thoroughly shaken by the hand at 50° C. and left to stand at room temperature (23° C.) for 10 minutes. […] A solvent was added so that the solid content became 30% by weight in a case where there were undissolved residues. The same operation was performed in 5%-by-weight steps and repeated up to 5% by weight. In a case where there were undissolved residues, it was determined that the solubility was less than 5% by weight (<5% by weight), and the operation was stopped. Methyl ethyl ketone (MEK) and cyclopentanone (CPN) were used as solvents for solubility measurement.

| Compound | Durability 100° C. Relatibe 144 hours [1] | Durability of optically anisotropic film [1] | Solubility Evaluation [2] | Solubility CPO [2] | Solubility MEK [2] |
| --- | --- | --- | --- | --- | --- |
| C=CC(=O)OCC(C)(C)COC(=O)CCC(=O)OCCc1ccc(OC(=O)C2CCC(C(=O)Oc3ccc(OC(=O)C4CCC(C5CCC(CC)CC5)CC4)c4c3SC(=C(C#N)C#N)S4)CC2)cc1 (centres unmarked) [Compound A-1] | C (A variation in Re (550) after the test with respect to the initial retardation value is 30% or more.) | deteriorated | C (A solubility in any one of MEK or CPN is less than 15%.) | 10 % by weight | 1 % by weight |
| C=CC(=O)OCC(C)(C)COC(=O)CCC(=O)OCCc1ccc(OC(=O)C2CCC(C(=O)Oc3c(C)cc(OC(=O)C4CCC(C5CCC(CC)CC5)CC4)c4c3SC(=C(C#N)C#N)S4)CC2)cc1 (centres unmarked) [Compound B-1] | C (A variation in Re (550) after the test with respect to the initial retardation value is 30% or more.) | deteriorated | B (A solubility in any one of MEK or CPN is 15% or more and less than 30%.) | 15 % by weight | 5 % by weight |
| C=CC(=O)OCC(C)(C)COC(=O)CCC(=O)OCCc1ccc(OC(=O)C2CCC(C(=O)Oc3cc(C(C)(C)C)c(OC(=O)C4CCC(C(=O)Oc5ccc(CCOC(=O)CCC(=O)OCC(C)(C)COC(=O)C=C)cc5)CC4)c4c3SC(=C(C#N)C#N)S4)CC2)cc1 (centres unmarked) [Compound C-1] | – | – | A (A solubility in any one of MEK or CPN is 30% or more.) | 40 % by weight | 40 % by weight |
| C=CC(=O)OCCOC(=O)CCC(=O)OCCc1ccc(OC(=O)C2CCC(C(=O)Oc3cc(C(C)(C)C)c(OC(=O)C4CCC(C(=O)Oc5ccc(CCOC(=O)CCC(=O)OCCOC(=O)C=C)cc5)CC4)c4c3SC(=C(C#N)C#N)S4)CC2)cc1 [Compound D-1] | C (A variation in Re (550) after the test with respect to the initial retardation value is 30% or more.) | deteriorate | A (A solubility in any one of MEK or CPN is 30% or more.) | 40 % by weight | 40 % by weight |
| C=CC(=O)OCCCCCCOc1ccc(OC(=O)C2CCC(C(=O)Oc3cc(C(C)(C)C)c(OC(=O)C4CCC(C(=O)Oc5ccc(OCCCCCCOC(=O)C=C)cc5)CC4)c4c3SC(=C(C#N)C#N)S4)CC2)cc1 (centres unmarked) [Compound E-1] | C (A variation in Re (550) after the test with respect to the initial retardation value is 30% or more.) | deteriorate | C (A solubility in any one of MEK or CPN is less than 15%.) | 10 % by weight | 8 % by weight |
| CCC1CCC(C2CCC(C(=O)Oc3cc(C(C)(C)C)c(OC(=O)C4CCC(C5CCC(CC)CC5)CC4)c4c3SC(=C(C#N)C#N)S4)CC2)CC1 (centres unmarked) [Compound I-1f] | – | – | C (A solubility in any one of MEK or CPN is less than 15%.) | 1 % by weight | <1 % by weight |
| C=CC(=O)OCCOC(=O)CCC(=O)OCCc1ccc(OC(=O)C2CCC(C(=O)Oc3c(C(C)(C)C)cc(OC(=O)C4CCC(C5CCC(CC)CC5)CC4)c4c3SC(=C(C#N)C#N)S4)CC2)cc1 (centres unmarked) [Compound I-2] | A (A variation in Re (550) after the test with respect to the initial retardation value is less than 15% of the initial value.) | – | A (A solubility in any one of MEK or CPN is 30% or more.) | 30 % by weight | 35 % by weight |
| C=CC(=O)OCCCCCCOc1ccc(OC(=O)C2CCC(C(=O)Oc3c(C(C)(C)C)cc(OC(=O)C4CCC(C5CCC(CC)CC5)CC4)c4c3SC(=C(C#N)C#N)S4)CC2)cc1 (centres unmarked) [Compound I-3] | A (A variation in Re (550) after the test with respect to the initial retardation value is less than 15% of the initial value.) | – | B (A solubility in any one of MEK or CPN is 15% or more and less than 30%.) | 20 % by weight | 10 % by weight |
| C=CC(=O)OCC(C)(C)COC(=O)CCC(=O)OCCc1ccc(OC(=O)C2CCC(C(=O)Oc3cc(C(C)(C)C)c(OC(=O)C4CCC(C5CCC(CC)CC5)CC4)c4c3SC(=C(C#N)C#N)S4)CC2)cc1 (centres unmarked) [Compound I-13] | B (A variation in Re (550) after the test with respect to the initial retardation value is 15% or more and less than 30% of the initial value.) | – | B (A solubility in any one of MEK or CPN is 15% or more and less than 30%.) | 15 % by weight | 5 % by weight |
